Experimental data: patent US20240336632A1, “NOVEL COMPOUND COMPRISING ESTER GROUP AND USES THEREOF” (priority 2021, published 2024)

What was measured:
[1] = tested on: porcine liver esterase; test: Esterase enzymatic assay (radio-TLC cleavage); assay type: in vitro ADME; conditions: 37 C
Experimental: The in vitro metabolism studies were performed using 25 U/mL solutions of porcine liver esterase in PBS. [^131I]HIB (1), [^131I]IPH (2), or [^131I]HIB-ether (3) (3.7 MBq each) was also dissolved in PBS with 10% DMSO. Esterase (2.5 U) was then added to each radiotracer solution, and the solution was gently shaken at 37° C.
With these hypotheses in mind, we performed systematic mechanistic studies. First, we carried out an esterase enzymatic assay. All three radiotracers, [^131I]HIB, [^131I]IPH, and [^131I]HIB-ether, were incubated separately with esterase (Sigma Aldrich, St. Louis, MO, USA) at 37° C. in a 10% DMSO/PBS mixture, and the progress of the reactions was monitored for 24 h by radio-TLC (FIG. 3A).

[2] = In vitro metabolism with mouse liver S9 fraction; assay type: in vitro ADME; conditions: 4 h incubation
Experimental: (§1) For the in vitro metabolic studies with mouse liver S9 fraction and microsome, 1-3 (3.7 MBq) were dissolved in PBS with 10% DMSO and mixed with the mouse liver S9 fraction (0.2 mg in 10 μL) or the microsome (0.2 mg in 10 μL) with NADPH (0.25 mM). The reaction was performed upon shaking at 550 rpm at 37° C. The hydrolysis rate of each radiotracer was measured by radio-TLC for up to 24 h.

[3] = In vitro metabolism with mouse liver microsome; assay type: in vitro ADME; conditions: 4 h incubation
Experimental: as §1

[4] = Ex vivo cleavage in liver homogenate
Experimental: Ex vivo studies to determine the cleavage rates of the examined radiotracers in different organs were performed using the homogenates of mouse tissues collected from CT26 tumor models. Liver, spleen, and tumor tissues were collected and weighted. After the addition of ice-cold PBS solution at a ratio of 1:1 (w/w), the tissues were homogenized with a homogenizer (Ultra-Turrax, IKA, Selangor, Malaysia) under ice-cold conditions. The crude homogenate was then centrifuged at 2,000 g, and the sediment was discarded. Each supernatant (300 μL), referred to as tissue homogenate, was immediately mixed with each radiotracer (3.7 MBq) dissolved in PBS with 10% DMSO. The reaction was then performed upon shaking at 550 rpm at 37° C., and the hydrolysis rate of each radiotracer was measured by radio-TLC for up to 24 h. […] Urine and fecal samples were collected separately at 0.5, 1, 2, 4, 8, 16, and 24 h post-injection, and their radioactivity was measured with a dose calibrator (CRC-Ultra; Capintec, Florham Park, NJ, USA). […] The same urine sample was further analyzed by HPLC [Luna C8 column (4.6×50 mm, 5 μm), 0.1% TFA/H2O (solventA), and 0.1% TFA/acetonitrile (solvent B)] using a gradient of 10-100% B in 5 min and 10% B for 27 min, which continued for up to 45 min at a flow rate of 1 mL/min.

[5] = Lipophilicity (log P) of the radiotracer; assay type: physicochemical
[6] = Ex vivo cleavage in spleen homogenate; assay type: in vitro ADME, mouse; conditions: 4 h and 24 h
Excerpt: Liver, spleen, and tumor tissues were collected and weighted.

[7] = tested on: normal BALB/c mice; test: Urinary and fecal excretion of radioactive metabolites; assay type: in vivo, mouse
[8] = tested on: orthotopic PANC-1/Luc+ pancreatic tumor BALB/c nude mice; test: PET/CT imaging of orthotopic pancreatic tumor model; assay type: in vivo; conditions: L4 at 24 h post-injection; FDG at 1 h post-injection, same mouse
Experimental: The establishment of the tumor in the orthotopic pancreatic tumor models was confirmed at 13 days post-inoculation of PANC-1/Luc+ cells into the pancreas tail with bioluminescence imaging using D-luciferin (60 mg/kg). The next day, [^18F]FDG-PET/CT (FDG: fluorodeoxyglucose) imaging was performed at 1 h post-injection (7.4 MBq/mouse) for 20 min.
Two days after [^18F]FDG imaging, [^124I]L4 (6.3-9.3 MBq in 200 μL PBS) was administered into the tail vein of the same mouse and PET/CT images were acquired at 1, 4, and 24 h post-injection.

| Compound | cleavage percentage ([1]; 4 h) [%] | cleavage percentage ([1]; 24 h) [%] | cleavage percentage [2] [%] | cleavage percentage [3] [%] | cleavage ([4]; 4 h) [%] | cleavage ([4]; 24 h) [%] | log P [5] | cleavage rate lower than in the liver [6] [%] | radioactivity in the feces relative to that in urine ([7]; after i.v. [131I]HIB-liposome) | metabolite found in urine ([7]; urine 3 h post-injection, radio-TLC and HPLC) | tumor detection in PET image [8] |
| --- | --- | --- | --- | --- | --- | --- | --- | --- | --- | --- | --- |
| CCCCCCCCCCCCCCCCOc1ccc(I)cc1 [[^131I]HIB-ether, 1-(hexadecyloxy)-4-[^124/131I]iodobenzene] | 15.9 | 20.3 | 19.3 | 16.0 | 23 | 25 | – | – | – | – | – |
| CCCCCCCCCCCCCCCCOC(=O)c1ccc([131I])cc1 [[^131I]HIB] | – | – | 89.7 | 85.3 | ~75 | ~88 | 2.19±0.04 | ~18 | less than 5% | 4-[^131I]iodobenzoic acid | – |
| CCCCCCCCCCCCCCCCC(=O)Oc1ccc([131I])cc1 [[^131I]IPH, 4-[^124/131I]iodophenyl heptadecanoate] | – | – | 91.3 | 87.3 | ~75 | ~88 | – | ~18 | – | – | – |
| fluorodeoxyglucose [[^18F]FDG] | – | – | – | – | – | – | – | – | – | – | the tumor could barely be detected |
